{"source": "patent US4436732A", "about": "“Medicated compound for treating diseases infected by virus of the herpes group” (priority 1981, dated 1984)", "key": {"[1]": {"test": "anti-ulcerous effect on the model of caffeine-arsenic ulcer", "assay_type": "in vivo, rats", "conditions": "per os for nine days, 20 mg/kg", "experimental": "The anti-ulcerous effect of the active principle has been studied on the model of caffeine-arsenic ulcer in rats. The substance is administered per os for nine days in the doses of 1, 10 and 20 mg/kg."}, "[2]": {"test": "cardiorhythmic effect on the aconitine model of arrhythmia", "assay_type": "in vivo, rat", "conditions": "intravenous, 10 and 50 mg/kg", "experimental": "The cardiorhythmic effect of the active principle has been studied on the rat's aconitine model of arrhythmia upon its intravenous administration in the doses of 10 and 50 mg/kg."}, "[3]": {"test_system": "smooth muscles of an isolated section of a rat's small intestine", "test": "spasmolytic effect on acetylcholine and barium spasms of smooth muscles of an isolated section of small intestine", "excerpt": "(§1) The cardiological effect of the active principle has been studied in experiments on an isolated cat's heart; the effect on electrocardiographic characteristics has been studied in experiments on rabbits; the vasodilative effect--on vessels of an isolated rabbit's ear; the spasmolytic effect--on acetylcholine and barium spasms of smooth muscles of an isolated section of a rat's small intestine."}, "[4]": {"test": "acute toxicity and tolerance", "parameters": "species or system white mice, rats, guinea pigs and dogs", "conditions": "in vivo", "experimental": "The study of an acute toxicity and tolerance of the active principle and the medicated compound in the form of tablets has been carried out on white mice, rats, guinea pigs and dogs with different modes of administration.\nThe active principle and tablets of the are administered in the form of an aqueous suspension hypodermally, intraperitoneally and in stomach."}, "[5]": {"test": "neurotropic activity: influence upon the somnific effects of hexenal or chloralhydrate", "assay_type": "in vivo", "conditions": "per os, 1, 10 and 100 mg/kg", "experimental": "The neurotropic activity of the active principle is assessed through its influence upon the somnific effects of hexenal or chloralhydrate. The substance is introduced per os in the doses of 1, 10 and 100 mg/kg."}, "[6]": {"test": "cardiological effect / electrocardiographic characteristics", "assay_type": "in vivo, rabbits", "conditions": "for increase of amplitude of cardiac contractions: P=0.05", "excerpt": "as §1\nThe studies have shown that upon the intravenous administration to rabbits of the active principle in the dose of 20 mg/kg it causes increased amplitude of cardiac contractions by 34% (P=0.05), in the dose of 50 mg/kg--by 41% (P=0.05); rarefaction of the rhythm of cardiac contractions in rabbits by 10-18% on the average and increase of the voltage of the peak P by 32%. […] A slight increase of the voltage of the peak P on the average by 20% is observed."}, "teratogenic activity": {"test": "teratogenic activity", "assay_type": "in vivo, rats", "conditions": "10 and 100 mg/kg per os daily for 30 days", "experimental": "The study of the teratogenic activity of the active principle has been carried out on 15 couples of adult rats weighing 350 g divided into 3 groups of 5 couples in each. The females of the first group were daily administred 10 mg/kg of the active principle per os for 30 days until the birth of small rats; the females of the second group were administered 100 mg/kg of the active principle during the same period; the females of the third group were the control."}, "[7]": {"test": "effect on characteristics of blood coagulation", "assay_type": "in vivo, rabbits", "conditions": "per os, 50 mg/kg, during 4 hours", "experimental": "The study of the effect of the active principle on certain characteristics of blood coagulation has been carried out on 5 rabbits. The compound is administered per os in the dose of 50 mg/kg as a suspension in a 2% starch paste. Blood has been examined prior to the administration and during 4 hours after a single-time administration of the suspension; determined are: blood plasma recalcification, thrombin time, thrombelastographic characteristics and thrombocyte concentration."}, "[8]": {"test": "effect on acute exudative and chronical proliferative phases of inflammation", "assay_type": "in vivo, mice", "experimental": "The effect of the active principle on the acute exudative and chronical proliferative phases of inflammation in doses of 10 and 50 mg/kg has been studied upon per os administration to mice."}, "[9]": {"test": "effect on the intensity of bile secretion, acute tests", "assay_type": "in vivo, cats", "conditions": "20 and 50 mg/kg", "excerpt": "In acute tests on cats the effect of the active principle on the intensity of bile secretion has been studied."}, "[10]": {"test": "antidiabetic effect: glucose in blood under alimentary carbohydrate load", "assay_type": "in vivo, rabbits", "conditions": "per os", "experimental": "To reveal the antidiabetic effect of the active principle, its effect on the content of glucose in rabbit's blood under the conditions of alimentary carbohydrate load has been studied. The active principle is administered in doses of 50 and 100 mg/kg once per os through a tube in a 1% starch paste. The experiment scheme is the following: the content of glucose in blood is determined in rabbit's blood on an empty stomach, and 40 minutes thereafter the content of glucose is again determined in blood. Afterwards, glucose is administered to the rabbits at the rate of 1.5 g/kg and the content of glucose in blood is determined 15, 30, 45, 60, 90 and 120 minutes after the administration thereof."}, "[11]": {"test": "effect on hemodynamics and breathing, acute experiment on narcotized cats", "assay_type": "in vivo", "conditions": "50 mg/kg intra-stomach", "experimental": "The study of the effect of this compound on the characteristics of hemodynamics and breathing has been carried out in an acute experiment on 6 narcotized cats (urethane 1.0 g/kg, chloralose 60 mg/kg) upon the intra-stomach administration of the active principle in the dose of 50 mg/kg. In each cat simultaneously recorded were the breathing frequency cardiac contraction frequency, systemic arterial pressure, amplitude of the volume blood flow in the abdominal aorta, amplitude of the brain rheograms and femur muscles rheorgrams."}, "[12]": {"test_system": "vessels of an isolated rabbit's ear", "test": "vasodilative effect on vessels of an isolated rabbit's ear", "excerpt": "as §1"}, "[13]": {"conditions": "intra-stomach, 50 and 150 mg/kg"}}}
{"smiles": "O=c1c2cc(O)c(O)cc2oc2cc(O)c([C@@H]3O[C@H](CO)[C@@H](O)[C@H](O)[C@H]3O)c(O)c12", "note": "[active principle, 2-C-β-D-glucopyranosyl-1,3,6,7-tetraoxyxanthone]", "values": [{"measurement": "anti-ulcerous effect", "setting": "[1]", "value": "weak anti-ulcerous effect"}, {"measurement": "cardiorhythmic effect", "setting": "[2]", "value": "no cardiorhythmic effect"}, {"measurement": "spasmolytic effect", "setting": "[3]", "value": "no vasodilative and spasmolytic effect"}, {"measurement": "toxicity (overall)", "setting": "[4]", "value": "low-toxic"}, {"measurement": "LD50", "setting": "[4]; ip, intraperitoneal", "value": "3000 to 4000", "unit": "mg/kg"}, {"measurement": "LD50", "setting": "[4]; po, in-stomach", "value": 10000, "unit": "mg/kg"}, {"measurement": "LD50", "setting": "[4]; sc, hypodermal", "value": "> 5000", "unit": "mg/kg"}, {"measurement": "effect on duration of sleep caused by chloralhydrate", "setting": "[5]", "value": "no substantial effect"}, {"measurement": "effect on duration of sleep caused by hexenal", "setting": "[5]", "value": "no substantial effect"}, {"measurement": "effect on duration of intervals of the cardiac cycle", "setting": "[6]; [13]", "value": "no substantial effect"}, {"measurement": "effect on the rhythm of cardiac contractions", "setting": "[6]; [13]", "value": "no substantial effect"}, {"measurement": "increase of the voltage of the peak P", "setting": "[6]; intra-stomach, 50 and 150 mg/kg, on the average", "value": 20, "unit": "%"}, {"measurement": "increase of the voltage of the peak P", "setting": "[6]; intravenous, rabbits", "value": 32, "unit": "%"}, {"measurement": "increase of amplitude of cardiac contractions", "setting": "[6]; intravenous, rabbits, 20 mg/kg", "value": 34, "unit": "%"}, {"measurement": "increase of amplitude of cardiac contractions", "setting": "[6]; intravenous, rabbits, 50 mg/kg", "value": 41, "unit": "%"}, {"measurement": "rarefaction of the rhythm of cardiac contractions", "setting": "[6]; intravenous, rabbits, on the average", "value": "10-18%"}, {"measurement": "cardiostimulant effect", "setting": "[6]; rabbit, in vivo", "value": "slight cardiostimulant effect"}, {"measurement": "teratogenic properties", "setting": "teratogenic activity", "value": "no teratogenic properties"}, {"measurement": "mutagenous activity", "setting": "mutagenous activity", "value": "no mutagenous activity"}, {"measurement": "effect on the blood coagulation process", "setting": "[7]", "value": "does not substantially affect"}, {"measurement": "exudative phase in chronical proliferative inflammation", "setting": "[8]; model of chronical proliferative inflammation", "value": "somewhat suppresses"}, {"measurement": "development of the exudative phase of inflammation", "setting": "[8]; per os, 50 mg/kg", "value": "suppresses the development of the exudative phase of inflammation"}, {"measurement": "antiphlogistic activity relative to formalin edema", "setting": "[8]; per os, 50 mg/kg, P below 0.005", "value": 12.7}, {"measurement": "antiphlogistic activity relative to dextran edema", "setting": "[8]; per os, 50 mg/kg, P below 0.05", "value": 16.5}, {"measurement": "lowering of penetration of skin vessels", "setting": "[8]; per os, 50 mg/kg, P below 0.05", "value": 15, "unit": "%"}, {"measurement": "antiphlogistic effect", "setting": "[8]; per os, 10 and 50 mg/kg", "value": "slight antiphlogistic effect"}, {"measurement": "formation of granulation-fibrous tissue", "setting": "[8]; proliferative stage of chronical inflammation", "value": "retards the formation of a granulation-fibrous tissue"}, {"measurement": "bile secretion intensity", "setting": "[9]", "value": "does not increase"}, {"measurement": "effect on the glycemic curve", "setting": "[10]; 50 mg/kg", "value": "no effect"}, {"measurement": "increase of glucose tolerance", "setting": "[10]; 100 mg/kg, uncertainly increased", "value": 14, "unit": "%"}, {"measurement": "other characteristics of hemodynamics", "setting": "[11]; narcotized cats", "value": "not substantially changed"}, {"measurement": "systemic arterial pressure", "setting": "[11]; narcotized cats", "value": "slightly lowers"}, {"measurement": "reduction of arterial pressure", "setting": "[11]; 60 and 90 minutes", "value": "do not differ from the control"}, {"measurement": "reduction of breathing frequency vs control", "setting": "[11]; 60 and 90 minutes", "value": "do not differ from the control"}, {"measurement": "reduction of breathing frequency", "setting": "[11]; 10 minutes, P below 0.05", "value": 21, "unit": "%"}, {"measurement": "reduction of breathing frequency", "setting": "[11]; 30 minutes, P below 0.01", "value": 32, "unit": "%"}, {"measurement": "vasodilative effect", "setting": "[12]", "value": "no vasodilative"}]}
